According to patent US20050143350A1, “Combination drug therapy to treat obesity” (priority 2003, published 2005):
“Also recorded” adds a separate entry of the source.

Assays:
[1] = Patient case records: body weight during co-administration of an anticholinesterase agent and an antidepressant; format: in vivo, human; set-up: Weight / Wt. Chg. / Δ Wt.: unit not given here; settings: for Wt. Chg.: positive = loss
From the text: The following examples illustrate exemplified treatment regimens and resultant synergistic effects in achieving long-term stable weight loss by co-administering to an individual an anticholinesterase agent and an antidepressant. Each patient is given an alphanumeric designator.

[2] = test system: P450 cytochrome; settings: cited from earlier work
[3] = doses over 300 mg a day; cited from earlier work
[4] = in vivo; cited from earlier work
[5] = Patient B3, comments wrap over rows: 'Epigastric discomfort, no vomiting.' (day 70), 'Bowels a little loose' (day 126), 'Vomiting after rivastigmine at supper' (day 175), 'Diethylpropion made them vomit twice.' (day 189)
[6] = patient R2, day 14, baseline 209.3, venlafaxine 75 mg alone, no rivastigmine
[7] = patient R2, day 35, baseline 209.3, venlafaxine 75 mg alone, no rivastigmine
[8] = patient R2, day 111, baseline 209.3, venlafaxine 75 mg alone, no rivastigmine

For CCN(CC)C(C)C(=O)c1ccccc1 (stereo not shown) [Diethylpropion, diethylpropion], the “Comments (side effects)” value [1, 5] was “vomit”.

With CN(C)C(=N)N=C(N)N [Metformin] the “Comments (side effects)” value ([1]; Patient B1, comment wraps over rows: 'Sweating and uncomfortable stomach in a.m.' (day 59), 'Metformin causes diarrhea') was “diarrhea”.

With CCN(C)C(=O)Oc1cccc([C@H](C)N(C)C)c1 [Riva.] the “Comments: adverse effects” value ([1]; patient M1, day 153, Tried 12 mg of Riva.) was “Caused vomit-; also recorded: ing, diarrhea,; also recorded: dizzy. B.P” and the “B.P. (Comments)” value ([1]; patient M1, day 153, Tried 12 mg of Riva., initial B.P. 140/100) was 88/64.

For CCN(C)C(=O)Oc1cccc([C@H](C)N(C)C)c1 [Rivastigmine, rivastigmine], the “metabolism by the P450 cytochrome” value [2] is given as “not metabolized by the P450 cytochrome” and the “Comments (side effects)” value [1, 5] is given as “Vomiting”.

In the case of COc1ccc(C(CN(C)C)C2(O)CCCCC2)cc1 (stereo not shown) [Venlafaxine, venlafaxine], the “patients with a mild increase in blood pressure” value [3] is given as 15%, the “absorption, influence of food” value [4] is given as “not influenced by the presence of food” and the “Δ Wt.” value ([1]; Patient F1, change from baseline 214.5, positive = weight lost, visit day = Days column (7-512)) is given as 6.0. For the same compound, the Weight ([1]; human, in vivo) was 208.5, the Weight [1, 6] was 207.5 and the “Wt. Chg.” value [1, 6] was 1.8. The Weight [1, 7] was 206.0, the “Wt. Chg.” value [1, 7] was 3.3 and the Weight [1, 8] was 213.3. The “Wt. Chg.” value [1, 8] was −4.0.
